Measured values published in article PMC8854621, “Functionally selective signaling and broad metabolic benefits by novel insulin receptor partial agonists” (Nature Communications, 2022).
Where “and” joins values, the source holds several entries; their conditions need not be identical. Equal values may be shown once. Read-outs that look alike come from different tables or passages of the source.

Legend:
SAOS2/B10 cells = assay: Cellular proliferation, EdU incorporation (Click-it EdU); type: cell-based
Source text: 3. […]
Ethynyl-2′-deoxyuridine; ThermoFisher Scientific) assay. […]

AAV-LIRKO and WT mice = assay: Glucose lowering in AAV-LIRKO versus WT mice; type: in vivo, mouse; settings: glucose lowering efficacy; RHI 30, Levemir 24, IRPA-5 120, IRPA-6 60 nmol/kg
Method: Male C57BL/6 mice and Sprague-Dawley rats were obtained from Taconic Farms (Germantown, NY, USA). AAV-LIRKO mice were developed by AAV-Cre injection into conditional IR KO mice (B6.129S4(FVB)-Insr^tm1Khn/J from Jackson Laboratory; Fig. S3). To generate streptozotocin (STZ)-induced diabetic mouse, male C57BL/6 mice were treated with a single intraperitoneal (i.p.; 100 mg/kg) injection of STZ (Sigma Chemical, St. Louis, MO, USA).
6. Mouse models and related studies
LIRKO mouse model generation
Jackson Laboratory, #6955). Male mice at 8 weeks of age maintained on chow diet (Teklad 7002) were administered AAV-cre via tail vein injection as doses indicated on Fig. S4. Mice were studied 4 weeks following AAV injection for ITT or put on HFD (Research Diets, D12492) for 4 weeks before glucose lowering studies were executed.
IRPA studies in HFD-STZ mice
HFD-STZ mice were developed as previously described 40 and were groups based on their glucose ranges. Acute glucose lowering efficacy of IRPAs in healthy and HFD -STZ mice were evaluated upon administration of escalating doses of test molecules, which was expressed as area over the curve (AOC) relative to vehicle.
Intact, male Beagle dogs (2-8 years old) were either purchased from Marshall Bioresources or acquired from other in-house programs. […]

ApoE KO mice [1] = assay: Aortic plaque in ApoE KO mice (Sudan IV staining, en face aorta); type: in vivo, mouse; settings: Fig. 6h; one value per animal
Method: (§1) Fig. 6 Beneficial IRPA effects beyond glycemic control. Glucose, body weight and hepatic triglyceride (TG) lowering by IRPA alone or in combination with a GLP-1 analog in mouse studies (a–d). Glucose lowering acutely (a) or during chronic QD dosing (b; 2-h post dose on day 11) in diabetic mice. Body weight (c) and liver triglyceride (d) changes at the end of 14-day QD dosing. […] Data is presented as mean ± SD. N = 8. p value is calculated using one-way ANOVA with Tukey’s multiple comparisons test: b1 < 0.001 vs. vehicle, b2 < 0.001 and b3 = 0.002 for indicated comparisons; c1 = 0.008 and c2 = 0.0001 vs. vehicle, c3 < 0.0001 for indicated comparisons; d1 < 0.001 vs. vehicle. IRPA reduces aortic plaque in ApoE KO mice (e–h). There was no significant body weight or cholesterol change from baseline by RHI or IRPA-3 (e, g). […] Data is presented as mean ± SD. p value is calculated using one-way ANOVA with Tukey’s multiple comparisons test: f1 = 0.0034 and f2 = 0.035 vs. vehicle; h1 = 0.046 vs. vehicle. […] Source data are provided as a Source Data file. […]

ApoE KO mice [2] = assay: Body weight in ApoE KO mice, 8 weeks s.c. pump; type: in vivo, mouse; settings: Fig. 6e; one value per animal
Method: as §1

[3] = tested on: differentiated mouse 3T3 L1 adipocytes; assay: [14C]-2-deoxyglucose uptake in differentiated mouse 3T3 L1 adipocytes; type: cell-based; settings: four-parameter fit; read-out: 2DG uptake in 3T3 L1 adipocytes EC50
Method: and phosphatase inhibitors for 30 minutes. The lysates were applied to the modified MSD Elisa assays to measure phosphorylation of different tyrosine residues on insulin receptor. Briefly, lysates were added to custom MSD IR plates (MSD cat# N45CA-1). Phosphorylation of tyrosine on IR were measured using antibody against pY960 (rabbit mAb, Cell Applications #CB4378) or pY1345 (rabbit mAb 14A4, Cell Signaling #3026), respectively in combination with SULFO-tag anti rabbit antibody (MSD cat# R32AB). For pY1150, cell lysate was added to MSD high binding plate […]
Signaling #3024). The bound insulin receptor was detected using combination of rabbit anti-insulin receptor b (C-19, Santa Cruz sc-711) and SULFO-tag anti rabbit antibody.
3. IGF-1R binding, cellular proliferation in SaoS2 cells and 2-deoxyglucose (2DG) update in mouse
IGF-1R affinity of IRPAs was assessed in a whole cell binding assay using a cell line stably expressing […]
activities of IRPAs as measured by EdU incorporation to SAOS2/B10 cells using the Click-it EdU (5-Ethynyl-2′-deoxyuridine; ThermoFisher Scientific) assay. To assess IRPA function downstream of the signaling cascade, [14C]-2-deoxyglucose cellular uptake in the differentiated mouse 3T3 L1 adipocytes was measured using standard protocol (3). […]
measured (S4a). Mouse white adipose tissue pAkt levels (S4b) were quantified in the same manner as other tissues […]

Which results are given for “RHI: recombinant human insulin, purchased from commercial sources”?
EC50 (SAOS2/B10 cells; geometric mean of all independent titrations, EdU incorporation, four-parameter fit, read-out: Cell Proliferation Assay Total Ave EC50): 6.53 nM; EC50 (SAOS2/B10 cells; titration 1, read-out: Cell Proliferation Assay EC50-1): 12.9 nM; EC50 (SAOS2/B10 cells; titration 2, read-out: Cell Proliferation Assay EC50-2): 3.1 nM; EC50 (SAOS2/B10 cells; titration 3, read-out: Cell Proliferation Assay EC50-3): 9.5 nM; EC50 (SAOS2/B10 cells; titration 4, read-out: Cell Proliferation Assay EC50-4): 9.5 nM; EC50 (SAOS2/B10 cells; titration 5, read-out: Cell Proliferation Assay EC50-5): 3.3 nM; AUC reduction in AAV-LIRKO mice compared to WT mice (AAV-LIRKO and WT mice): 30%; Aortic plaque area (% to total surface) (ApoE KO mice [1]): 33.7% and 21.2% and 20.3% and 22.7% and 23.8% and 26.1% and 21.1% and 26.6% and 22.5% and 26.7% and 29.0% and 23.3%; Body ewight change (%) from pretreatment (ApoE KO mice [2]): 13.2% and 5.48% and 7.48% and 4.52% and 8.31% and 18.95% and 5.38% and -7.57% and 17.6% and 5.39% and 19.87% and 3% and 15.56%; EC50 [3]: 6.6 nM
